Data on 24 compounds can be found in US20250206722A1, “SMALL MOLECULE INHIBITORS OF TEA DOMAIN FAMILY MEMBERS” (The Scripps Research Institute, priority 2022, published 2025).

Type in all cases: cell-based
Assay [1] has as its system transcriptional activity of TEADs. Put plainly: TEAD reporter assay (MCF7 TEAD-LUC reporter cells). The conditions noted are these: Homo sapiens, 24 hours, BrightGlo luminescence. An outline of the steps:
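MCF7 TEAD-LUC reporter cells were plated at 5,000/well and after 24 h treated with a 20-point 1:2 series from 20 μM final, in triplicate. Luciferase was read by BrightGlo luminescence after 24 h exposure at 37 °C.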
(In general: A reporter such as luciferase makes a cellular process visible.)

Assay [2] relates to NCI-H226 cells. Put plainly: NCI-H226 proliferation assay (Wuxi AppTec). Particulars: Homo sapiens, 168 h, 7 days, CellTiter-Glo, top dose 10, 3-fold dilution, 9 doses. As for the experimental part: […] Proliferation Assay (From Wuxi AppTec CO.):
Day −1: Seeding cells • (1) Equilibrate cell culture medium to 37° C. • (2) Remove and discard the culture medium. • (3) Briefly rinse the cell layer with PBS to remove all traces of serum that contains […]. • (4) Add 2-3 mL of Trypsin-EDTA solution to flask and observe cells under an inverted microscope until cell layer is dispersed. • (5) Add 6-8 mL of growth medium to terminate the digestion of Trypsin/EDTA. • (6) Centrifuge the mixture (Trypsin EDTA and the growth medium) at 1000 rpm for 5 mins. • (7) Discard the supernatant, suspend the cell precipitation with the fresh growth medium, then take 1 mL the cell suspension to count cells with Vi-cell XR cell viability analyzer. • (8) Adjust the cell density to 500 cells/well for 384-well plates. • (9) Add 50 µL/well volume cell suspension to the assay plate. • (10) Add […] media to the control columns. • (11) Incubate the plate at 37° C., 5% CO2 for overnight. Day 0: Compounds treatment • (1) Add cpds to each well by Tecan HP D300E. The top dose is […], 3-fold dilution and 9 doses. DMSO final concentration will be normalized to 0.2%. • (2) Incubate the assay plate at 37° C., 5% CO2 for 7 days. Day 7: Plate read • (1) Equilibrate the assay plate to the room temperature for nearly 30 minutes. • (2) Add […] CellTiter-Glo reagent to each well and shake the plate for 1 min, incubate 10 min and keep them from light. • (3) Detect the plate by EnVision. Data analysis:
Max: Average of the DMSO group Min: Average of medium group.
On the technique in general: In ATP-based viability assays light output follows the ATP content of the culture.

For assay [3], the system named is NCI-H226 cells. Put plainly: NCI-H226 proliferation assay (in house). Particulars: Homo sapiens, 120 h, 5 days, Cell TiterGlo, 20-point 1:2 dilution from 20 μM. The essentials:
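Cells in RPMI 1640 + 10% FBS, 500 per well, dosed after 24 h with 20-point 1:2 dilutions from 20 μM (final), in triplicate. After 5 days at 37 °C, 5% CO2, viability read by CellTiter-Glo luminescence.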

pIC50: −log10 of the molar value.

As to `C=CC(=O)N1CCN(c2nccnc2Oc2cnc(C(F)(F)F)nc2)CC1` [Example 87, 1-(4-(3-((2-(trifluoromethyl)pyrimidin-5-yl)oxy)pyrazin-2-yl)piperazin-1-yl)prop-2-en-1-one], the pIC50 – broadly, the negative decadic logarithm of the IC50, by convention in mol/L – in assay [1] is 8.85. The IC50 (in general, the concentration at which inhibition is half-maximal) is 0.047 µM with NCI-H226 cells [2] and 0.025 µM with NCI-H226 cells [3].

Turning to `C=CC(=O)N1CC=C(c2nccnc2Nc2ccc(C(F)(F)F)nc2)CC1` [Example 55, 1-(4-(3-((6-(trifluoromethyl)pyridin-3-yl)amino)pyrazin-2-yl)-3,6-dihydropyridin-1(2H)-yl)prop-2-en-1-one], the pIC50 in assay [1] is 8.40. For the same compound, the IC50 came to 0.058 µM in the assay on NCI-H226 cells [2] and 0.03 µM in the assay with NCI-H226 cells [3].

Consider `C=C(F)C(=O)N1CC=C(c2nccnc2Oc2ccc(C(F)(F)F)nc2)CC1` [Example 85, 2-fluoro-1-(4-(3-((6-(trifluoromethyl)pyridin-3-yl)oxy)pyrazin-2-yl)-3,6-dihydropyridin-1(2H)-yl)prop-2-en-1-one], for which the pIC50 in assay [1] is 8.80. Moreover, the values for the IC50 with NCI-H226 cells [2] and in the assay on NCI-H226 cells [3] were 0.011 µM and 0.016 µM, respectively.

Compound `C=CC(=O)N1CCN(c2nccnc2N2CC3(CC(C(F)(F)F)C3)C2)CC1` [Example 110, 1-(4-(3-(6-(trifluoromethyl)-2-azaspiro[3.3]heptan-2-yl)pyrazin-2-yl)piperazin-1-yl)prop-2-en-1-one] had a pIC50 in assay [1] of 8.52. Further, the half-inhibitory concentration (IC50) in the assay with NCI-H226 cells [2] is 0.046 µM; with NCI-H226 cells [3], 0.067 µM.

In assay [1], `C#CCC1CN(c2nccnc2Nc2ccc(C(F)(F)F)cc2)CCN1C(=O)C=C` (stereo not drawn) [Example 23, 1-(2-(prop-2-yn-1-yl)-4-(3-((4-(trifluoromethyl)phenyl)amino)pyrazin-2-yl)piperazin-1-yl)prop-2-en-1-one] gave a pIC50 of 9.52. The IC50 was found to be 0.151 µM in the assay on NCI-H226 cells [2] and 0.651 µM in the assay on NCI-H226 cells [3].

`C=CC(=O)N1CCC(c2ncccc2Oc2ccc(C(F)(F)F)nc2)CC1` [Example 138, 1-(4-(3-((6-(trifluoromethyl)pyridin-3-yl)oxy)pyridin-2-yl)piperidin-1-yl)prop-2-en-1-one] had a negative-log IC50 (pIC50) in assay [1] of 7.27. Further, the IC50 turned out to be 0.134 µM in the assay on NCI-H226 cells [2] and 2.4 µM in the assay with NCI-H226 cells [3].

`C=CC(=O)N1CCN(c2nccnc2Nc2ccc(OC(F)(F)F)nc2)CC1` [Example 48, 1-(4-(3-((6-(trifluoromethoxy)pyridin-3-yl)amino)pyrazin-2-yl)piperazin-1-yl)prop-2-en-1-one] had a pIC50 in assay [1] of 9.15. Moreover, the IC50 stood at 0.032 µM in the assay with NCI-H226 cells [2] and 0.023 µM in the assay with NCI-H226 cells [3].

The compound `C=CC(=O)N1CCN(c2nccnc2N2CCC(C(F)(F)F)CC2)CC1` [Example 105, 1-(4-(3-(4-(trifluoromethyl)piperidin-1-yl)pyrazin-2-yl)piperazin-1-yl)prop-2-en-1-one] gave a pIC50 in assay [1] of 8.96. Besides, the IC50 was 0.05 µM with NCI-H226 cells [2] and 0.004 µM in the assay on NCI-H226 cells [3].

In the case of `C=CC(=O)N1CC=C(c2cccnc2Oc2ccc(C(F)(F)F)nc2)CC1` [Example 153, 1-(2-((6-(trifluoromethyl)pyridin-3-yl)oxy)-3′,6′-dihydro-[3,4′-bipyridin]-1′(2′H)-yl)prop-2-en-1-one], in assay [1], the pIC50 was 8.85. Further, the IC50 in the assay on NCI-H226 cells [2] was 0.065 µM; with NCI-H226 cells [3] it was 0.034 µM.

In assay [1], `C=CC(=O)N1CCC(c2cccnc2Oc2ccc(C(F)(F)F)nc2)CC1` [Example 155, 1-(4-(2-((6-(trifluoromethyl)pyridin-3-yl)oxy)pyridin-3-yl)piperidin-1-yl)prop-2-en-1-one] showed a pIC50 of 8.74. Also, the figures for the IC50 with NCI-H226 cells [2] and with NCI-H226 cells [3] were 0.018 µM and 0.015 µM, respectively.

As to `C=CC(=O)N1CCN(c2nccnc2Nc2ccc(OC(F)F)nc2)CC1` [Example 49, 1-(4-(3-((6-(difluoromethoxy)pyridin-3-yl)amino)pyrazin-2-yl)piperazin-1-yl)prop-2-en-1-one], the pIC50 in assay [1] was 8.70. Also, the values for the IC50 with NCI-H226 cells [2] and in the assay with NCI-H226 cells [3] were 0.031 µM and 0.055 µM, respectively.

For the compound `C=CC(=O)N1CC=C(c2nccnc2Oc2cnc(C(F)(F)F)nc2)CC1` [Example 89, 1-(4-(3-((2-(trifluoromethyl)pyrimidin-5-yl)oxy)pyrazin-2-yl)-3,6-dihydropyridin-1(2H)-yl)prop-2-en-1-one], in assay [1], the pIC50 was 8.74. For the same compound, the IC50 in the assay on NCI-H226 cells [2] is 0.033 µM; with NCI-H226 cells [3], 0.164 µM.

Regarding `C=CC(=O)N1CCN(c2nccnc2Nc2ccc(OC(F)F)cc2)CC1` [Example 35, 1-(4-(3-((4-(difluoromethoxy)phenyl)amino)pyrazin-2-yl)piperazin-1-yl)prop-2-en-1-one], the pIC50 in assay [1] is 9.10. The IC50 in the assay on NCI-H226 cells [2] came out at 0.028 µM; in the assay on NCI-H226 cells [3], 0.084 µM.

As for `C=CC(=O)N1CCC(c2nccnc2Nc2ccc(C(F)(F)F)cn2)CC1` [Example 44, 1-(4-(3-((5-(trifluoromethyl)pyridin-2-yl)amino)pyrazin-2-yl)piperidin-1-yl)prop-2-en-1-one], in assay [1], the pIC50 is 8.85. In addition, the IC50 in the assay on NCI-H226 cells [2] is 0.02 µM; with NCI-H226 cells [3] it was 0.012 µM.

`C=CC(=O)N1CCN(c2nccnc2NC2C3CC2C3C(F)(F)F)CC1` (stereo not drawn) [Example 67, 1-(4-(3-((4-(trifluoromethyl)bicyclo[1.1.1]pentan-2-yl)amino)pyrazin-2-yl)piperazin-1-yl)prop-2-en-1-one] showed a pIC50 in assay [1] of 8.54. Besides, the IC50 with NCI-H226 cells [2] was 1.45 µM; in the assay on NCI-H226 cells [3] it was 0.079 µM.

For the compound `C=CC(=O)N1CCN(c2nccnc2Oc2ccc(OC(F)(F)F)cc2)CC1` [Example 72, 1-(4-(3-(4-(trifluoromethoxy)phenoxy)pyrazin-2-yl)piperazin-1-yl)prop-2-en-1-one], the pIC50 in assay [1] is 9.28. In addition, the values for the IC50 in the assay with NCI-H226 cells [2] and with NCI-H226 cells [3] were 0.011 µM and 0.005 µM, respectively.

In the case of `N#C/C=C/C(=O)N1CCN(c2nccnc2Nc2ccc(C(F)(F)F)cc2)CC1` [Example 181, (E)-4-oxo-4-(4-(3-((4-(trifluoromethyl)phenyl)amino)pyrazin-2-yl)piperazin-1-yl)but-2-enenitrile], the pIC50 in assay [1] is 9.36. In addition, the figures for the IC50 in the assay on NCI-H226 cells [2] and with NCI-H226 cells [3] were 0.026 µM and 0.034 µM, respectively.

In turn, `C=CC(=O)N1CCC(c2cccnc2Oc2cnc(C(F)(F)F)nc2)CC1` [Example 159, 1-(4-(2-((2-(trifluoromethyl)pyrimidin-5-yl)oxy)pyridin-3-yl)piperidin-1-yl)prop-2-en-1-one] had a pIC50 in assay [1] of 8.74. Also, the IC50 was 0.051 µM in the assay on NCI-H226 cells [2] and 0.022 µM in the assay on NCI-H226 cells [3].

Regarding `C=C(F)C(=O)N1CCN(c2nccnc2Nc2ccc(C(F)(F)F)nc2)CC1` [Example 46, 2-fluoro-1-(4-(3-((6-(trifluoromethyl)pyridin-3-yl)amino)pyrazin-2-yl)piperazin-1-yl)prop-2-en-1-one], the pIC50 in assay [1] was 9.22. For the same compound, the IC50 with NCI-H226 cells [2] is 0.452 µM; with NCI-H226 cells [3], 1.63 µM.

In assay [1], `C=CC(=O)N1CCN(c2nccnc2N2CC(c3ccc(F)cc3)C2)CC1` [Example 107, 1-(4-(3-(3-(4-fluorophenyl)azetidin-1-yl)pyrazin-2-yl)piperazin-1-yl)prop-2-en-1-one] gave a pIC50 of 9.15. Further, the IC50 in the assay with NCI-H226 cells [2] is 0.049 µM; in the assay on NCI-H226 cells [3] it was 0.018 µM.

In assay [1], `C=CC(=O)N1CC=C(c2cccnc2Nc2ccc(C(F)(F)F)nc2)CC1` [Example 145, 1-(2-((6-(trifluoromethyl)pyridin-3-yl)amino)-3′,6′-dihydro-[3,4′-bipyridin]-1′(2′H)-yl)prop-2-en-1-one] gave a pIC50 of 8.62. The IC50 in the assay on NCI-H226 cells [2] came out at 0.017 µM; in the assay with NCI-H226 cells [3] it was 0.029 µM.

As for `C=CC(=O)N1CCN(c2nccnc2Oc2ccc(OC(F)F)cc2)CC1` [Example 71, 1-(4-(3-(4-(difluoromethoxy)phenoxy)pyrazin-2-yl)piperazin-1-yl)prop-2-en-1-one], the pIC50 in assay [1] is 8.89. The IC50 was determined as 0.007 µM in the assay on NCI-H226 cells [2] and 0.008 µM in the assay on NCI-H226 cells [3].

As for `C=C(F)C(=O)N1CC(Nc2nccnc2Nc2ccc(C(F)(F)F)nc2)C1` [Example 63, 2-fluoro-1-(3-((3-((6-(trifluoromethyl)pyridin-3-yl)amino)pyrazin-2-yl)amino)azetidin-1-yl)prop-2-en-1-one], in assay [1], the pIC50 is 8.32. The IC50 in the assay on NCI-H226 cells [2] was found to be 1.7 µM; in the assay with NCI-H226 cells [3], 1.5 µM.

In assay [1], `C=CC(=O)N1CCN(c2nc(C)ncc2Nc2ccc(C(F)(F)F)cc2)CC1` [Example 128, 1-(4-(2-methyl-5-((4-(trifluoromethyl)phenyl)amino)pyrimidin-4-yl)piperazin-1-yl)prop-2-en-1-one] showed a pIC50 of 8.80. Besides, the IC50 in the assay with NCI-H226 cells [2] is 0.082 µM; in the assay on NCI-H226 cells [3] it was 0.179 µM.
